In ChEMBL document CHEMBL1145498, “A systematic interaction map of validated kinase inhibitors with Ser/Thr kinases” (Proc Natl Acad Sci U S A, 2007):

Legend:
[1] = molecular target: Serine/threonine-protein kinase Chk2 (Homo sapiens, UniProt O96017)
[2] = molecular target: T1, Myotonin-protein kinase (Homo sapiens) (UniProt Q09013)
T1 sequence (whole entry): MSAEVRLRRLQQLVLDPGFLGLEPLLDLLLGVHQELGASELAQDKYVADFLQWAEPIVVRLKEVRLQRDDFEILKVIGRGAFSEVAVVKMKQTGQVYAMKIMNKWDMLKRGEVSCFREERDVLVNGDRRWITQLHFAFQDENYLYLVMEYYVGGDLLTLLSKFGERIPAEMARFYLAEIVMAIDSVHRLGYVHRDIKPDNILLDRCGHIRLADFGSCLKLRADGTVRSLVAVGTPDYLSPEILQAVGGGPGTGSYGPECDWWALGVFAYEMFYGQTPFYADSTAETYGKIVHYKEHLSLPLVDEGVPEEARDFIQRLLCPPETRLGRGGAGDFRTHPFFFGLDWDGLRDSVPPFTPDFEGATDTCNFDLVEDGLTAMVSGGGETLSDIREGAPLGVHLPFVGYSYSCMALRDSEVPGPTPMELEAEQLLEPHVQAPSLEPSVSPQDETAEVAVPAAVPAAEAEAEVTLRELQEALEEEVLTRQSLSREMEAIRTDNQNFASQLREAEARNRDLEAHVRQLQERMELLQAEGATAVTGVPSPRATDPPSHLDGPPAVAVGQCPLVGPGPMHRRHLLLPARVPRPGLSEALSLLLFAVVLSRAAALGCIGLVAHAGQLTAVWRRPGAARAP

[3] = molecular target: T2, Mitogen-activated protein kinase kinase kinase 5 (Homo sapiens) (UniProt Q99683)
T2 sequence (whole entry): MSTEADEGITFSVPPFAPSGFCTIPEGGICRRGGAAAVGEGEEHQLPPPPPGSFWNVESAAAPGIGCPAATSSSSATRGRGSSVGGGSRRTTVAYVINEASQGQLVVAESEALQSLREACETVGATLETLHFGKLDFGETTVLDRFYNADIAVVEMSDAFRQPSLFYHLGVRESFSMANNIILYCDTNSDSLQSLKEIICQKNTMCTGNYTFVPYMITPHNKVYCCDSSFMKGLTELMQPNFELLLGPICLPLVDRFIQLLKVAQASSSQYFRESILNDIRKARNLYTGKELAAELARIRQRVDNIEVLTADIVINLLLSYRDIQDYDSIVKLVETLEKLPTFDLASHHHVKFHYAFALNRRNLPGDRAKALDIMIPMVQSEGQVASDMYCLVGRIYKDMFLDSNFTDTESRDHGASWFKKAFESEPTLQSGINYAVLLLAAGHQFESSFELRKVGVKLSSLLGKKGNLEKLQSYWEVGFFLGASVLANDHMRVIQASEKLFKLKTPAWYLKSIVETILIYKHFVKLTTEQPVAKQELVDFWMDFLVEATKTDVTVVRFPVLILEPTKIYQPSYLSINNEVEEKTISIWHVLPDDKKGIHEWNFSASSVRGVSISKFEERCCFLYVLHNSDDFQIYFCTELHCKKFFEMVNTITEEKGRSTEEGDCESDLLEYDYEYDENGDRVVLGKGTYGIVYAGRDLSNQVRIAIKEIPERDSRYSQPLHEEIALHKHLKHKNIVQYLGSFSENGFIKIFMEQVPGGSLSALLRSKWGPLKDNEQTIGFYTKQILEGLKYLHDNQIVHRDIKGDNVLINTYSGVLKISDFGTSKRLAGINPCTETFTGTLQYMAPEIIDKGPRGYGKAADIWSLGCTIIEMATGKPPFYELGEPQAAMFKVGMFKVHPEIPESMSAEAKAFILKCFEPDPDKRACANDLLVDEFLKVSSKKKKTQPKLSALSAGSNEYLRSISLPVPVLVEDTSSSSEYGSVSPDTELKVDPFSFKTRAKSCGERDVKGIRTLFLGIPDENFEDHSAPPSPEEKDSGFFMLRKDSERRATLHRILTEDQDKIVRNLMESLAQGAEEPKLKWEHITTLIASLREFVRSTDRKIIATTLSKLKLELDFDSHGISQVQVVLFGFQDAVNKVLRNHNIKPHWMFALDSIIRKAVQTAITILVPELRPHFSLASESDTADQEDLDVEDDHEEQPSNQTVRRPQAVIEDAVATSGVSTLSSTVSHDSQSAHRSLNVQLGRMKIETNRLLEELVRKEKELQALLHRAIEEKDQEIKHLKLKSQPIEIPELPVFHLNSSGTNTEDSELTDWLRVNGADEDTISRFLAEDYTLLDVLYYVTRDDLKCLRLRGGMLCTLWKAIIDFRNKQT

[4] = molecular target: Serine/threonine-protein kinase pim-1 (Homo sapiens) (UniProt P11309)
Sequence of Serine/threonine-protein kinase pim-1 (Homo sapiens) (P11309 whole entry, looked up): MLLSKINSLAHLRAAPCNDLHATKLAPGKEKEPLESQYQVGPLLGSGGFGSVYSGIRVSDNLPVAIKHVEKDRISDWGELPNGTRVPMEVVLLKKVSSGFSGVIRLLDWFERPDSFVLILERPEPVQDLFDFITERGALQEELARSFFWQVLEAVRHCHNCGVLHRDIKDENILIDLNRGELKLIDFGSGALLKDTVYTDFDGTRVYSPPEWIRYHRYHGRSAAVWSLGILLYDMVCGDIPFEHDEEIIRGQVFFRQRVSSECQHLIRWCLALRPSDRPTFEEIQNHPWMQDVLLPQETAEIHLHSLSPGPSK

[5] = molecular target: T3, Serine/threonine-protein kinase 17A (Homo sapiens) (UniProt Q9UEE5)
T3 sequence (whole entry): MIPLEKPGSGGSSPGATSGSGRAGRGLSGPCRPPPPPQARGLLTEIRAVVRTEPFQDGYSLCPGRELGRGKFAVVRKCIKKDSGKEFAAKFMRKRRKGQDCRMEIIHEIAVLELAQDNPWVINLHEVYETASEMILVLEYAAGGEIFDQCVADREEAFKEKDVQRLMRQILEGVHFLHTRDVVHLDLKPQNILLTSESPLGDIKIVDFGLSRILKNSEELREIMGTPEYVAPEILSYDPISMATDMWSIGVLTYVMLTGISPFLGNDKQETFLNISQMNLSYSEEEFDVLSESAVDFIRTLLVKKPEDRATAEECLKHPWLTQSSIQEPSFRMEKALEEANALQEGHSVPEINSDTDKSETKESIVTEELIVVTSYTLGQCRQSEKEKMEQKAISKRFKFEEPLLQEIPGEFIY

[6] = molecular target: T4, Serine/threonine-protein kinase VRK1 (Homo sapiens) (UniProt Q99986)
T4 sequence (whole entry): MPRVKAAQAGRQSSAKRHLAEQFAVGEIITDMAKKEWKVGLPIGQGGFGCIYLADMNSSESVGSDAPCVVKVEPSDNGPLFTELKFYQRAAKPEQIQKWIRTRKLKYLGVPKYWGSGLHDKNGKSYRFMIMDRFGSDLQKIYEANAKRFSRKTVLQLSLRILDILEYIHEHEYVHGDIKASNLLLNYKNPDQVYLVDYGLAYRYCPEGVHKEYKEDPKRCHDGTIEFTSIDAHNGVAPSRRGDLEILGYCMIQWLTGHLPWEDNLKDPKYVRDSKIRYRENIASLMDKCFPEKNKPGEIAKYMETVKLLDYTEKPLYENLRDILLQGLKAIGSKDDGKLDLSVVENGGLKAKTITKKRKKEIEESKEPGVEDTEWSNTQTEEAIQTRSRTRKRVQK

Sequence of Serine/threonine-protein kinase Chk2 (O96017 whole entry): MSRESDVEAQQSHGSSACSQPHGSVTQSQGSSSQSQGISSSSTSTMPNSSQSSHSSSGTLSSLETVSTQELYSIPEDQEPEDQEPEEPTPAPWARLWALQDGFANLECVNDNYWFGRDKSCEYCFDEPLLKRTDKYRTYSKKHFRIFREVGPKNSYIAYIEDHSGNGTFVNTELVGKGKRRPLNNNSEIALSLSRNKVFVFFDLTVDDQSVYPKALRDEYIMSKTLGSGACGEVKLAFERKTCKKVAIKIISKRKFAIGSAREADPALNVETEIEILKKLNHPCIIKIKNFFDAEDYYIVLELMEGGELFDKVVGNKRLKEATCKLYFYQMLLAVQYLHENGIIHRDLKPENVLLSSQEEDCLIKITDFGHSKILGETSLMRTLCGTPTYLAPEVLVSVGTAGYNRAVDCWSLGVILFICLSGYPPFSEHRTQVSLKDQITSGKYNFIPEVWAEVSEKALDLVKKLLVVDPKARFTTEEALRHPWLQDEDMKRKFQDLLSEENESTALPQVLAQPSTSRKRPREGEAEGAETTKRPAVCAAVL

Row | Structure (SMILES) | ΔTm [1] [°C] | ΔTm [2] [°C] | ΔTm [3] [°C] | ΔTm [4] [°C] | ΔTm [5] [°C] | ΔTm [6] [°C]
1 | CC(C)n1cnc2c(NCc3ccccc3)nc(NCCCO)nc21 | 0.5 | 0 | 0.2 | 0.1 | 0 | -0.1
2 | COc1cc2ncnc(Nc3ccc(F)c(Cl)c3)c2cc1OCCCN1CCOCC1 | 3.1 | 3.6 | 0.1 | 3.4 | 0.6 | 0.5
3 | N#C/C(=C\c1ccc(O)c(O)c1)C(=O)NCc1ccccc1 | 0.4 | -0.6 | -0.2 | 2.1 | 4.4 | 0.4
4 | COc1ccc(CNC(=O)Nc2ncc([N+](=O)[O-])s2)cc1 | 0.4 | 0.1 | -0.4 | 1.1 | 0.5 | -0.5
5 | CN(C)c1ccc(CC2C(=O)Nc3ccccc32)cc1 (stereo not given) | 0.7 | -1.8 | 1.1 | -0.2 | 6.2 | -0.2
6 | O=C1Nc2ccc(I)cc2/C1=C\c1cc(Br)c(O)c(Br)c1 | 0.1 | 0.2 | 1.7 | 2.5 | 4.8 | 1.7
7 | Cn1cc(C2=C(c3cn(CCCSC(=N)N)c4ccccc34)C(=O)NC2=O)c2ccccc21 | 7 | 7.1 | 0.3 | 9.7 | 4.3 | 1.6
8 | O=c1ccc2ccc(O)c(O)c2o1 [DAPHNETIN] | -0.1 | -0.6 | -0.6 | 0.2 | 0.4 | 0
9 | O=S(=O)(NCCNC/C=C/c1ccc(Br)cc1)c1cccc2cnccc12 | 2.6 | -0.6 | -0.3 | -0.2 | 1.7 | -0.3
10 | O=[N+]([O-])c1ccc(-c2nc(-c3ccc(F)cc3)c(-c3ccncc3)[nH]2)cc1 | -0.4 | -0.2 | -0.3 | -1.2 | 0.6 | 0
